In patent publication US10758534B2 (Vertex Pharmaceuticals Incorporated, priority 2014, dated 2020):

Biological target: T1, F508del (Homo sapiens, UniProt P13569, DEL508-508)
T1 construct: expressed in transfected cells
Assay: Protocol 1: membrane potential optical assay (FLIPR III, voltage sensing dye), identification of potentiator compounds
Type: cell-based
Conditions: Table 3, compounds of Table 1
Procedure, shortened: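 Gating potentiation is read as a membrane-potential fluorescence change (FLIPR III, voltage-sensing dye) after one forskolin addition under a Cl− gradient, with gluconate replacing chloride, pH 7.4. Cells are F508del-expressing NIH3T3 mouse fibroblasts held 24 h at 27 °C and exposed to compound before dye loading.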

T1 sequence (P13569 with tags, fused parts or gaps DEL508-508): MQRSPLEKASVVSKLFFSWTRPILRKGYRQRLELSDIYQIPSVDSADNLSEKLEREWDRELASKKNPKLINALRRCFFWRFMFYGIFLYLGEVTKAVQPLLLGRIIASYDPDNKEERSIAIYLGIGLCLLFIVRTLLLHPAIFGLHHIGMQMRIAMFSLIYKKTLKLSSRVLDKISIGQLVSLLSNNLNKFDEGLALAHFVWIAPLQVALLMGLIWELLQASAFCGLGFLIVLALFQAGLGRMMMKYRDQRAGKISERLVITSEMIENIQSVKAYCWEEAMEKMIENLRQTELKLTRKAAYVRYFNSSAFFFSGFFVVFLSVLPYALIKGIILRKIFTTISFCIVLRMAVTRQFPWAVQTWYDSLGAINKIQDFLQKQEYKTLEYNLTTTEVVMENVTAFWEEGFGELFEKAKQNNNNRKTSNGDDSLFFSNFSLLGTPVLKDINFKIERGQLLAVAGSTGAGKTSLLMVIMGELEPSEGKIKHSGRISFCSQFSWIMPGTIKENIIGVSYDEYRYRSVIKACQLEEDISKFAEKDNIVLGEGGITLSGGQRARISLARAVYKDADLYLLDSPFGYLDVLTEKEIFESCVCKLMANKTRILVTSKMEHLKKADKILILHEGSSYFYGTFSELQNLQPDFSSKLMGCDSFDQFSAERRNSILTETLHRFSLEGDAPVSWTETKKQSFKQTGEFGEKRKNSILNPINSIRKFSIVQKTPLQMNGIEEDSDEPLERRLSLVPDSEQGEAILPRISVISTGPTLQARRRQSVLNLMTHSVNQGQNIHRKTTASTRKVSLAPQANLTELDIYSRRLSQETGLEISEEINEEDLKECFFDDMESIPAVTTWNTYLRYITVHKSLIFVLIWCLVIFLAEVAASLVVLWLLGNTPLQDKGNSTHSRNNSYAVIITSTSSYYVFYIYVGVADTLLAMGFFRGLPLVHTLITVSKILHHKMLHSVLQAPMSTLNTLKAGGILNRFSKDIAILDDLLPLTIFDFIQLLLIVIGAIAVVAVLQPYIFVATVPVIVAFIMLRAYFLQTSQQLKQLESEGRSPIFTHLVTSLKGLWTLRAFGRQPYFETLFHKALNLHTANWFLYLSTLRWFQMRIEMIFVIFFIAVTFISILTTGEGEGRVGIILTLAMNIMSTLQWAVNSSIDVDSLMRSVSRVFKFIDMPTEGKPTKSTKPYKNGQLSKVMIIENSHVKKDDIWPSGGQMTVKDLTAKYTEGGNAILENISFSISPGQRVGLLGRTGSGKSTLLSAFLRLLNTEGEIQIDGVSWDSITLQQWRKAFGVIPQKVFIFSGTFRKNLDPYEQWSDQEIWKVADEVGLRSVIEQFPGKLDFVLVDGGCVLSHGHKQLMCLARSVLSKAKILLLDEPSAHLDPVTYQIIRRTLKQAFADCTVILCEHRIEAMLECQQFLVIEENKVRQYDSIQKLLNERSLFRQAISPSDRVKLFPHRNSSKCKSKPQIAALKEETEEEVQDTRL

Row | SMILES | EC30
1 | CC(C)COc1cc(F)cc(-c2ccc(C(=O)NS(=O)(=O)c3cccc(N)n3)c(N3CC(C)(C)CC3(C)C)n2)c1 [Compound 850, N-[(6-amino-2-pyridyl)sulfonyl]-6-(3-fluoro-5-isobutoxy-phenyl)-2-(2,2,4,4-tetramethylpyrrolidin-1-yl)pyridine-3-carboxamide] | +++ (“+++” means <3 uM)
2 | CC(C)COc1cc(F)cc(-c2ccc(C(=O)NS(=O)(=O)c3cccc(N)n3)c(N3[C@@H]4CCC[C@H]3CC4)n2)c1 [Compound 934, N-[(6-amino-2-pyridyl)sulfonyl]-2-[(1R,5S)-8-azabicyclo[3.2.1]octan-8-yl]-6-(3-fluoro-5-isobutoxy-phenyl)pyridine-3-carboxamide] | +++ (“+++” means <3 uM)
3 | CC(C)COc1cc(F)cc(-c2ccc(C(=O)NS(=O)(=O)c3cccc(N)n3)c(N3CCC4CC43)n2)c1 (stereo not shown) [Compound 906, N-[(6-amino-2-pyridyl)sulfonyl]-2-(4-azabicyclo[3.1.0]hexan-4-yl)-6-(3-fluoro-5-isobutoxy-phenyl)pyridine-3-carboxamide] | +++ (“+++” means <3 uM)
4 | CC(C)COc1cc(F)cc(-c2ccc(C(=O)NS(=O)(=O)C3CC3)c(N3C[C@@H](C)CC3(C)C)n2)c1 [Compound 1525, N-cyclopropylsulfonyl-6-(3-fluoro-5-isobutoxy-phenyl)-2-[(4S)-2,2,4-trimethylpyrrolidin-1-yl]pyridine-3-carboxamide] | +++ (“+++” means <3 uM)
5 | CC(C)COc1cc(F)cc(-c2ccc(C(=O)NS(=O)(=O)c3cccc(O)c3)c(N3CCC(C)(C)CC3)n2)c1 [Compound 1309, 2-(4,4-dimethyl-1-piperidyl)-6-(3-fluoro-5-isobutoxy-phenyl)-N-(3-hydroxyphenyl)sulfonyl-pyridine-3-carboxamide] | +++ (“+++” means <3 uM)
6 | CCOc1cccc(-c2ccc(C(=O)NS(=O)(=O)c3cccnc3N)c(N3C[C@@H](C)CC3(C)C)n2)c1F [Compound 1847, N-[(2-amino-3-pyridyl)sulfonyl]-6-(3-ethoxy-2-fluoro-phenyl)-2-[(4S)-2,2,4-trimethylpyrrolidin-1-yl]pyridine-3-carboxamide] | +++ (“+++” means <3 uM)
7 | CC(C)COc1cc(F)cc(-c2ccc(C(=O)NS(=O)(=O)c3cccc(N)n3)c(OC(C)CC3CCOCC3)n2)c1 (stereo not shown) [Compound 1361, N-[(6-amino-2-pyridyl)sulfonyl]-6-(3-fluoro-5-isobutoxy-phenyl)-2-(1-methyl-2-tetrahydropyran-4-yl-ethoxy)pyridine-3-carboxamide] | +++ (“+++” means <3 uM)
8 | CC(C)COc1ccc(-c2ccc(C(=O)NS(=O)(=O)c3cccc(N)n3)c(N3CCC(C)CC3)n2)cc1 [Compound 1094, N-[(6-amino-2-pyridyl)sulfonyl]-6-(4-isobutoxyphenyl)-2-(4-methyl-1-piperidyl)pyridine-3-carboxamide] | +++ (“+++” means <3 uM)
9 | CCOc1ccc(-c2ccc(C(=O)NS(=O)(=O)c3cccc(N)n3)c(Oc3c(C)cc(C)cc3C)n2)cc1OC [Compound 1268, N-[(6-amino-2-pyridyl)sulfonyl]-6-(4-ethoxy-3-methoxy-phenyl)-2-(2,4,6-trimethylphenoxy)pyridine-3-carboxamide] | +++ (“+++” means <3 uM)
10 | CC(C)COc1cc(F)cc(-c2ccc(C(=O)NS(=O)(=O)c3ccn[nH]3)c(N3CCC[C@@H](c4ccccc4)C3)n2)c1 [Compound 912, 6-(3-fluoro-5-isobutoxy-phenyl)-2-[(3S)-3-phenyl-1-piperidyl]-N-(1H-pyrazol-5-ylsulfonyl)pyridine-3-carboxamide] | +++ (“+++” means <3 uM)
11 | Cc1cc(-c2ccc(C(=O)NS(=O)(=O)c3cccnc3N)c(N3C[C@@H](C)CC3(C)C)n2)cc(C)c1O [Compound 1923, N-[(2-amino-3-pyridyl)sulfonyl]-6-(4-hydroxy-3,5-dimethyl-phenyl)-2-[(4S)-2,2,4-trimethylpyrrolidin-1-yl]pyridine-3-carboxamide] | ++ (“++” means between 3 uM and 10 uM)
12 | CC1CN(c2nc(C(C)(C)C)c(C3=CCC4(CC3)OCCO4)cc2C(=O)NS(=O)(=O)c2cccc(N)n2)C(C)(C)C1 (stereo not shown) [Compound 1459, N-[(6-amino-2-pyridyl)sulfonyl]-6-tert-butyl-5-(1,4-dioxaspiro[4.5]dec-8-en-8-yl)-2-(2,2,4-trimethylpyrrolidin-1-yl)pyridine-3-carboxamide] | +++ (“+++” means <3 uM)
13 | COc1ncccc1S(=O)(=O)NC(=O)C1Cc2ccccc2CCN1Cc1c(C)cc(C)cc1C (stereo not shown) [Compound 876, N-[(2-methoxy-3-pyridyl)sulfonyl]-3-[(2,4,6-trimethylphenyl)methyl]-1,2,4,5-tetrahydro-3-benzazepine-4-carboxamide] | +++ (“+++” means <3 uM)
14 | CO[C@@H]1CCN(S(=O)(=O)NC(=O)c2ccc(-c3cc(F)cc(OCC(C)C)c3)nc2N2C[C@@H](C)CC2(C)C)C1 [Compound 1893, 6-(3-fluoro-5-isobutoxy-phenyl)-N-[(3R)-3-methoxypyrrolidin-1-yl]sulfonyl-2-[(4S)-2,2,4-trimethylpyrrolidin-1-yl]pyridine-3-carboxamide] | +++ (“+++” means <3 uM)
15 | CC(C)COc1cc(F)cc(-c2ccc(C(=O)NS(=O)(=O)c3ccn[nH]3)c(N3C[C@@H](C)CC3(C)C)n2)c1 [Compound 1041, 6-(3-fluoro-5-isobutoxy-phenyl)-N-(1H-pyrazol-5-ylsulfonyl)-2-[(4S)-2,2,4-trimethylpyrrolidin-1-yl]pyridine-3-carboxamide] | +++ (“+++” means <3 uM)
16 | CC(C)COc1cc(F)cc(-c2ccc(C(=O)NS(=O)(=O)c3cccc(N)n3)c(O[C@@H]3CCOC3)n2)c1 [Compound 1592, N-[(6-amino-2-pyridyl)sulfonyl]-6-(3-fluoro-5-isobutoxy-phenyl)-2-[(3R)-tetrahydrofuran-3-yl]oxy-pyridine-3-carboxamide] | +++ (“+++” means <3 uM)
17 | CC(C)COc1cc(F)cc(-c2ccc(C(=O)NS(=O)(=O)c3cccc(N)n3)c(OC3CC(F)(F)C3)n2)c1 [Compound 1458] | +++ (“+++” means <3 uM)
18 | CC(C)COc1cc(F)cc(-c2ccc(C(=O)NS(=O)(=O)N3CC[C@H](N)C3)c(N3C[C@@H](C)CC3(C)C)n2)c1 [Compound 1557, N-[(3S)-3-aminopyrrolidin-1-yl]sulfonyl-6-(3-fluoro-5-isobutoxy-phenyl)-2-[(4S)-2,2,4-trimethylpyrrolidin-1-yl]pyridine-3-carboxamide] | +++ (“+++” means <3 uM)
19 | CC(C)Oc1ccc(-c2ccc(C(=O)NS(=O)(=O)c3cccc(N)n3)c(N3[C@H](C)CC[C@H]3C)n2)cn1 [Compound 1198, N-[(6-amino-2-pyridyl)sulfonyl]-2-[(2R,5R)-2,5-dimethylpyrrolidin-1-yl]-6-(6-isopropoxy-3-pyridyl)pyridine-3-carboxamide] | +++ (“+++” means <3 uM)

Results, then the molecule that gave them:

Row | EC30 | SMILES
20 | +++ (“+++” means <3 uM) | CCOc1cccc2c1CN(Cc1c(C)cc(C)cc1C)C2(C)C(=O)NS(=O)(=O)c1cccc(NC(C)=O)n1 (stereo not shown) [Compound 1415, N-[(6-acetamido-2-pyridyl)sulfonyl]-4-ethoxy-1-methyl-2-[(2,4,6-trimethylphenyl)methyl]isoindoline-1-carboxamide]
21 | +++ (“+++” means <3 uM) | Cc1cc(C)c(Oc2nc(-c3cc(F)cc(OC(C)C)c3)ccc2C(=O)NS(=O)(=O)c2nccnc2N)c(C)c1 [Compound 989, N-(3-aminopyrazin-2-yl)sulfonyl-6-(3-fluoro-5-isopropoxy-phenyl)-2-(2,4,6-trimethylphenoxy)pyridine-3-carboxamide]
22 | +++ (“+++” means <3 uM) | Cc1cc(C)c(CN2C(C(=O)NS(=O)(=O)c3ccc[nH]c3=O)c3ccccc3C2(C)C)c(C)c1 (stereo not shown) [Compound 1085, 3,3-dimethyl-N-[(2-oxo-1H-pyridin-3-yl)sulfonyl]-2-[(2,4,6-trimethylphenyl)methyl]isoindoline-1-carboxamide]
23 | ++ (“++” means between 3 uM and 10 uM) | Cc1cc(C)c(Oc2nc(-c3cnn(C(C)C)c3)ccc2C(=O)NS(=O)(=O)c2cccc(N)n2)c(C)c1 [Compound 808, N-[(6-amino-2-pyridyl)sulfonyl]-6-(1-isopropylpyrazol-4-yl)-2-(2,4,6-trimethylphenoxy)pyridine-3-carboxamide]
24 | +++ (“+++” means <3 uM) | Cc1cc(C)c(Oc2nc(C3=COCC3)ccc2C(=O)NS(=O)(=O)c2cccc(N)n2)c(C)c1 [Compound 1412, N-[(6-amino-2-pyridyl)sulfonyl]-6-(2,3-dihydrofuran-4-yl)-2-(2,4,6-trimethylphenoxy)pyridine-3-carboxamide]
25 | +++ (“+++” means <3 uM) | COc1ccc(-c2ccc(C(=O)NS(=O)(=O)c3cc[nH]n3)c(Oc3c(C)cc(C)cc3C)n2)cc1 [Compound 1033, 6-(4-methoxyphenyl)-N-(1H-pyrazol-3-ylsulfonyl)-2-(2,4,6-trimethylphenoxy)pyridine-3-carboxamide]
26 | ++ (“++” means between 3 uM and 10 uM) | Cc1cc(C)c(Oc2nc(C3=CCNCC3)ccc2C(=O)NS(=O)(=O)c2cccc(N)n2)c(C)c1 [Compound 1643, N-[(6-amino-2-pyridyl)sulfonyl]-6-(1,2,3,6-tetrahydropyridin-4-yl)-2-(2,4,6-trimethylphenoxy)pyridine-3-carboxamide]
27 | ++ (“++” means between 3 uM and 10 uM) | CC1CN(c2nc(C(C)(C)C)c(-c3cnn(C)c3)cc2C(=O)NS(=O)(=O)c2cccc(N)n2)C(C)(C)C1 (stereo not shown) [Compound 1441, N-[(6-amino-2-pyridyl)sulfonyl]-6-tert-butyl-5-(1-methylpyrazol-4-yl)-2-(2,2,4-trimethylpyrrolidin-1-yl)pyridine-3-carboxamide]
28 | +++ (“+++” means <3 uM) | CCOc1cccc2c1CN(Cc1c(C)cc(C)cc1C)C2(C)C(=O)NS(=O)(=O)c1cccc(C(F)F)n1 (stereo not shown) [Compound 1597, N-[[6-(difluoromethyl)-2-pyridyl]sulfonyl]-4-ethoxy-1-methyl-2-[(2,4,6-trimethylphenyl)methyl]isoindoline-1-carboxamide]
